# Laboratory results taken from US8394356B2, “Diagnostic imaging contrast agents with extended blood retention” (Lantheus Medical Imaging, Inc., priority 1995, dated 2013).
# Marks after values point to notes of the source that are not given here.
# Legend:
# HSA [1] = target: T1, HSA (Homo sapiens, UniProt P02768); experiment: HSA binding by equilibrium dialysis or ultrafiltration, 4.5% weight/volume HSA, pH 7.4 buffer
# Text: (§1) In this application, the measurement of percent binding of the contrast agent to HSA has an error of approximately ±5%.
# [2] = Rat plasma pharmacokinetic experiment (Gd153 radiolabeled complexes, tail vein injection)
# Experimental: In this application, blood half-life data, as measured by AUC-conc., represents experimentation in rats.
# (§2) Rats were injected intravenously (tail vein) with 0.1 mmol/kg of the Gd^153 radiolabeled complexes. Plasma concentrations were determined over 30 minutes and fit to a standard bi-exponential two-compartment model. […] In addition, the 1/T1s of the plasma samples were recorded (at 20 MHZ, 37° C.) to assess the efficacy as MRI agents.
# HSA [3] = target: T1, HSA
# Text: as §1
# [4] = 1/T1 of rat plasma samples after intravenous injection (efficacy as MRI agents); type: in vivo; conditions: rats, 0.1 mmol/kg i.v., plasma 1/T1 at 20 MHZ, 37° C., first 10 minutes
# Experimental: as §2
# T1 sequence (P02768 25-609): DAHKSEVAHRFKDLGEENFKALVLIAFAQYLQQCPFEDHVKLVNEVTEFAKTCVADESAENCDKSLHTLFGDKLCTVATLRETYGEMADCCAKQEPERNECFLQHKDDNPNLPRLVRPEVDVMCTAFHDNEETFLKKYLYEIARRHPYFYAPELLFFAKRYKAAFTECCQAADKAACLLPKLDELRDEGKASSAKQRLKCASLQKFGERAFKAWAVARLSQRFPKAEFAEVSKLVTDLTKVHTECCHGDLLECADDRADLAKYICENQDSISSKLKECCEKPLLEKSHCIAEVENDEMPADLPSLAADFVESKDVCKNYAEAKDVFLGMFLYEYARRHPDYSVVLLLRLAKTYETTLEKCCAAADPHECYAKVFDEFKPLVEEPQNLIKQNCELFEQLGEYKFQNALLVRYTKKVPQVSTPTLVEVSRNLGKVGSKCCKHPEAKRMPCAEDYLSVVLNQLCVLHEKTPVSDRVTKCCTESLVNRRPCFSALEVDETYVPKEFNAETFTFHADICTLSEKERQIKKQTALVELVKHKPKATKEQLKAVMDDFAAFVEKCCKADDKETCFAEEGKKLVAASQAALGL
Compound,"fraction unbound (HSA [1]; human, 4.5% weight/volume human serum albumin (HSA) solution)","AUC-conc. (for 0 to 10 minutes) greater than that of analogue ([2]; 0 to 10 minutes, versus analogue drawing 27)","% bound to HSA (HSA [1]; 4.5% HSA, error approx ±5%)",binding to HSA (in words) (HSA [3]),"t1/2 ([2]; elimination half-life, rats, 0.1 mmol/kg i.v. tail vein, plasma over 30 min, bi-exponential two-compartment model)",blood half-life ([2]; rats),"AUC-conc ([2]; rats, 0.1 mmol/kg i.v., first 10 minutes, error approx ±10%)","AUC-conc. from 0 to 10 minutes ([2]; two rats, 0.1 mmol/kg tail vein, Gd153-labeled, calculated with KaleidaGraph)",AUC-1/T1 [4]
O=C(O)CN(CCN(CC(=O)O)CC(COP(=O)(O)OCCCCCCCCCCc1ccccc1)N(CC(=O)O)CC(=O)O)CC(=O)O (stereo not drawn),< 0.05,≥ 100%,,,,,,,
"O=C([O-])CN(CCN(CC(=O)[O-])CC(=O)O)CCN(CC(=O)[O-])CC(=O)O.[Gd+3] [DTPA, gadolinium diethylenetriamine-pentaacetic acid]",,,0%,little or no binding to HSA,15.0 min,15 min,3.5 mM·min,3.5 mM·min,27 s^−1 * min
